Key:
[1] = Dialysis diffusion: effect of dialysate volume; type: physicochemical; details: 0.25 g of 3% solution in NMP
Experimental: Dissolution apparatus: Vankel VK 7000 (Agilent Technologies Australia)
Dialysis bags: dialysis tubing cellulose membrane from Sigma-Aldrich Australia—average flat width 25 mm, average diameter 16 mm (when full), retains >90% of cytocrome C (M.W. 12.400) in solution over a 10 hrs period.
(§1) Dialysis tubing cellulose membrane was cut into approximately 8 cm lengths, washed with hot water for 3 hours. Tubing was then treated with 0.3% (w/v) solution of sodium sulfide at 80° C. for 1 minute, washed with hot water (60° C.) for 2 minutes and followed by acidification with 0.2% sulfuric acid. Tubing was then rinsed with hot water to remove the acid. Test formulations were added, the tubing closed with nylon closures and placed in the dialysate. At various time periods, the dialysate was sampled and the flumazenil released measured by HPLC assay.
Chromatography column: C18-250 mm×4.6 mm×5 μm (Sigma Aldrich Australia)
Mobile phase: H2O pH 2:methanol:tetrahydrofuran (80:13:7)
Injection volume: 10 μl and 100 μl
Experiments were conducted to check the influence of the volume of the dialysis medium (dialysate) on diffusion rate.
A=800 ml of phosphate buffer pH 4.0
B=600 ml of phosphate buffer pH 4.0
0.25 g of 3% flumazenil solution in N-Methyl-2-Pyrrolidinone (NMP)

[2] = Dialysis diffusion: effect of sample size; type: physicochemical
Experimental: as §1
Experiments were conducted to test the influence of sample size on diffusion rate.
(§2) As described in 1.1 with 600 ml of phosphate buffer pH 4.0 as dialysate.
A=0.125 g of a 3% flumazenil solution in NMP
B=0.250 g of a 3% flumazenil solution in NMP
C=0.500 g of a 3% flumazenil solution in NMP

[3] = Dialysis diffusion: effect of sample concentration; type: physicochemical
Experimental: as §1
Experiments were conducted to test the effect of sample concentration on diffusion rate.
as §2
(§3) A=0.25 g of a 1.5% flumazenil solution in NMP
B=0.25 g of a 3.0% flumazenil solution in NMP
C=0.25 g of a 4.5% flumazenil solution in NMP

[4] = Dialysis diffusion: effect of concentration and sample size (same quantity of flumazenil); type: physicochemical
Experimental: as §1
Experiments were conducted to test the effect of different concentrations and different sample sizes (but same quantity of flumazenil) on diffusion rate.
as §2, §3
B=0.125 g of a 3% flumazenil solution in NMP
C=0.083 g of a 4.5% flumazenil solution in NMP

methamphetamine cravings = details: clinical trials, along with hydroxyzine and gabapentin; cited from earlier work
[5] = sample A1 (0.25 g of 1.5% solution in NMP), 1 h
[6] = sample A1 (0.25 g of 1.5% solution in NMP), 2 h
[7] = sample A1 (0.25 g of 1.5% solution in NMP), 3 h
[8] = sample A2 (0.25 g of 1.5% solution in NMP), 1 h
[9] = sample A2 (0.25 g of 1.5% solution in NMP), 2 h
[10] = sample A2 (0.25 g of 1.5% solution in NMP), 3 h
[11] = sample A (0.25 g of 1.5% solution in NMP)

% flumazenil released ([1]; A1 (800 ml dialysate pH 4.0), 1 h): 57.6%
% flumazenil released ([1]; A1 (800 ml dialysate pH 4.0), 2 h): 73.1%
% flumazenil released ([1]; A1 (800 ml dialysate pH 4.0), 4 h): 94.5%
% flumazenil released ([1]; A1 (800 ml dialysate pH 4.0), 6 h): 100.9%
% flumazenil released ([1]; A1 (800 ml dialysate pH 4.0), 24 h): 100.7%
% flumazenil released ([1]; A2 (800 ml dialysate pH 4.0), 1 h): 50.3%
% flumazenil released ([1]; A2 (800 ml dialysate pH 4.0), 2 h): 66.0%
% flumazenil released ([1]; A2 (800 ml dialysate pH 4.0), 4 h): 88.6%
% flumazenil released ([1]; A2 (800 ml dialysate pH 4.0), 6 h): 98.9%
% flumazenil released ([1]; A2 (800 ml dialysate pH 4.0), 24 h): 101.7%
% flumazenil released ([1]; B1 (600 ml dialysate pH 4.0), 1 h): 52.2%
% flumazenil released ([1]; B1 (600 ml dialysate pH 4.0), 2 h): 69.2%
% flumazenil released ([1]; B1 (600 ml dialysate pH 4.0), 4 h): 92.7%
% flumazenil released ([1]; B1 (600 ml dialysate pH 4.0), 6 h): 99.2%
% flumazenil released ([1]; B1 (600 ml dialysate pH 4.0), 24 h): 100.64%
% flumazenil released ([1]; B2 (600 ml dialysate pH 4.0), 1 h): 50.5%
% flumazenil released ([1]; B2 (600 ml dialysate pH 4.0), 2 h): 66.5%
% flumazenil released ([1]; B2 (600 ml dialysate pH 4.0), 4 h): 89.2%
% flumazenil released ([1]; B2 (600 ml dialysate pH 4.0), 6 h): 98.0%
% flumazenil released ([1]; B2 (600 ml dialysate pH 4.0), 24 h): 99.2%
time to reach equilibrium ([1]; dialysate A (800 ml)): around 6 hours
time to reach equilibrium ([1]; dialysate B (600 ml)): around 6 hours
% flumazenil released ([2]; sample A1 (0.125 g of 3% solution in NMP), 1 h): 85.8%
% flumazenil released ([2]; sample A1 (0.125 g of 3% solution in NMP), 2 h): 94.9%
% flumazenil released ([2]; sample A1 (0.125 g of 3% solution in NMP), 4 h): 100.1%
% flumazenil released ([2]; sample A1 (0.125 g of 3% solution in NMP), 6 h): 101.8%
% flumazenil released ([2]; sample A1 (0.125 g of 3% solution in NMP), 24 h): 101.6%
% flumazenil released ([2]; sample A2 (0.125 g of 3% solution in NMP), 1 h): 77.9%
% flumazenil released ([2]; sample A2 (0.125 g of 3% solution in NMP), 2 h): 90.8%
% flumazenil released ([2]; sample A2 (0.125 g of 3% solution in NMP), 4 h): 99.1%
% flumazenil released ([2]; sample A2 (0.125 g of 3% solution in NMP), 6 h): 101.3%
% flumazenil released ([2]; sample A2 (0.125 g of 3% solution in NMP), 24 h): 102.0%
% flumazenil released ([2]; sample B1 (0.250 g of 3% solution in NMP), 1 h): 50.9%
% flumazenil released ([2]; sample B1 (0.250 g of 3% solution in NMP), 2 h): 64.7%
% flumazenil released ([2]; sample B1 (0.250 g of 3% solution in NMP), 4 h): 87.0%
% flumazenil released ([2]; sample B1 (0.250 g of 3% solution in NMP), 6 h): 96.3%
% flumazenil released ([2]; sample B1 (0.250 g of 3% solution in NMP), 24 h): 101.3%
% flumazenil released ([2]; sample B2 (0.250 g of 3% solution in NMP), 1 h): 50.9%
% flumazenil released ([2]; sample B2 (0.250 g of 3% solution in NMP), 2 h): 65.2%
% flumazenil released ([2]; sample B2 (0.250 g of 3% solution in NMP), 4 h): 87.6%
% flumazenil released ([2]; sample B2 (0.250 g of 3% solution in NMP), 6 h): 97.8%
% flumazenil released ([2]; sample B2 (0.250 g of 3% solution in NMP), 24 h): 101.3%
% flumazenil released ([2]; sample C1 (0.500 g of 3% solution in NMP), 1 h): 36.6%
% flumazenil released ([2]; sample C1 (0.500 g of 3% solution in NMP), 2 h): 45.5%
% flumazenil released ([2]; sample C1 (0.500 g of 3% solution in NMP), 4 h): 59.3%
% flumazenil released ([2]; sample C1 (0.500 g of 3% solution in NMP), 6 h): 70.4%
% flumazenil released ([2]; sample C1 (0.500 g of 3% solution in NMP), 24 h): 100.8%
% flumazenil released ([2]; sample C2 (0.500 g of 3% solution in NMP), 1 h): 46.5%
% flumazenil released ([2]; sample C2 (0.500 g of 3% solution in NMP), 2 h): 56.0%
% flumazenil released ([2]; sample C2 (0.500 g of 3% solution in NMP), 4 h): 71.1%
% flumazenil released ([2]; sample C2 (0.500 g of 3% solution in NMP), 6 h): 83.1%
% flumazenil released ([2]; sample C2 (0.500 g of 3% solution in NMP), 24 h): 101.0%
% flumazenil released [3, 5]: 92.9%
% flumazenil released [3, 6]: 100.5%
% flumazenil released [3, 7]: 101.4%
% flumazenil released [3, 8]: 89.8%
% flumazenil released [3, 9]: 100%
% flumazenil released [3, 10]: 101.4%
precipitation during the dialysis [3, 11]: no precipitation was observed
% flumazenil released ([3]; sample B1 (0.25 g of 3.0% solution in NMP), 1 h): 62.1%
% flumazenil released ([3]; sample B1 (0.25 g of 3.0% solution in NMP), 2 h): 74.8%
% flumazenil released ([3]; sample B2 (0.25 g of 3.0% solution in NMP), 1 h): 62.0%
% flumazenil released ([3]; sample B2 (0.25 g of 3.0% solution in NMP), 2 h): 76.3%
precipitation during the dialysis ([3]; sample B (0.25 g of 3.0% solution in NMP)): Precipitation was observed
% flumazenil released ([3]; sample C1 (0.25 g of 4.5% solution in NMP), 1 h): 27.5%
% flumazenil released ([3]; sample C1 (0.25 g of 4.5% solution in NMP), 2 h): 40.4%
% flumazenil released ([3]; sample C2 (0.25 g of 4.5% solution in NMP), 1 h): 29.1%
% flumazenil released ([3]; sample C2 (0.25 g of 4.5% solution in NMP), 2 h): 43.0%
precipitation during the dialysis ([3]; sample C (0.25 g of 4.5% solution in NMP)): Precipitation was observed
% flumazenil released [4, 5]: 91.0%
% flumazenil released [4, 6]: 100.3%
% flumazenil released [4, 7]: 101.0%
% flumazenil released ([4]; sample A1 (0.25 g of 1.5% solution in NMP), 4 h): 100.9%
% flumazenil released ([4]; sample A1 (0.25 g of 1.5% solution in NMP), 5 h): 101.0%
% flumazenil released ([4]; sample A1 (0.25 g of 1.5% solution in NMP), 6 h): 100.8%
% flumazenil released [4, 8]: 93.2%
% flumazenil released [4, 9]: 100.7%
% flumazenil released [4, 10]: 100.9%
% flumazenil released ([4]; sample A2 (0.25 g of 1.5% solution in NMP), 4 h): 101.0%
% flumazenil released ([4]; sample A2 (0.25 g of 1.5% solution in NMP), 5 h): 100.6%
% flumazenil released ([4]; sample A2 (0.25 g of 1.5% solution in NMP), 6 h): 100.7%
precipitation in bags during the dialysis [4, 11]: no precipitation observed
% flumazenil released ([4]; sample B1 (0.125 g of 3% solution in NMP), 1 h): 92.3%
% flumazenil released ([4]; sample B1 (0.125 g of 3% solution in NMP), 2 h): 99.0%
% flumazenil released ([4]; sample B1 (0.125 g of 3% solution in NMP), 3 h): 100.4%
% flumazenil released ([4]; sample B1 (0.125 g of 3% solution in NMP), 4 h): 101.1%
% flumazenil released ([4]; sample B1 (0.125 g of 3% solution in NMP), 5 h): 100.9%
% flumazenil released ([4]; sample B1 (0.125 g of 3% solution in NMP), 6 h): 101.1%
% flumazenil released ([4]; sample B2 (0.125 g of 3% solution in NMP), 1 h): 80.6%
% flumazenil released ([4]; sample B2 (0.125 g of 3% solution in NMP), 2 h): 92.4%
% flumazenil released ([4]; sample B2 (0.125 g of 3% solution in NMP), 3 h): 97.3%
% flumazenil released ([4]; sample B2 (0.125 g of 3% solution in NMP), 4 h): 99.3%
% flumazenil released ([4]; sample B2 (0.125 g of 3% solution in NMP), 5 h): 100.3%
% flumazenil released ([4]; sample B2 (0.125 g of 3% solution in NMP), 6 h): 100.6%
precipitation in bags during the dialysis ([4]; sample B (0.125 g of 3% solution in NMP), rank A < B < C): precipitation was observed
% flumazenil released ([4]; sample C1 (0.083 g of 4.5% solution in NMP), 1 h): 56.1%
% flumazenil released ([4]; sample C1 (0.083 g of 4.5% solution in NMP), 2 h): 79.3%
% flumazenil released ([4]; sample C1 (0.083 g of 4.5% solution in NMP), 3 h): 92.3%
% flumazenil released ([4]; sample C1 (0.083 g of 4.5% solution in NMP), 4 h): 98.1%
% flumazenil released ([4]; sample C1 (0.083 g of 4.5% solution in NMP), 5 h): 100.1%
% flumazenil released ([4]; sample C1 (0.083 g of 4.5% solution in NMP), 6 h): 100.7%
% flumazenil released ([4]; sample C2 (0.083 g of 4.5% solution in NMP), 1 h): 43.5%
% flumazenil released ([4]; sample C2 (0.083 g of 4.5% solution in NMP), 2 h): 66.1%
% flumazenil released ([4]; sample C2 (0.083 g of 4.5% solution in NMP), 3 h): 82.3%
% flumazenil released ([4]; sample C2 (0.083 g of 4.5% solution in NMP), 4 h): 93.6%
% flumazenil released ([4]; sample C2 (0.083 g of 4.5% solution in NMP), 5 h): 99.2%
% flumazenil released ([4]; sample C2 (0.083 g of 4.5% solution in NMP), 6 h): 101.2%
precipitation in bags during the dialysis ([4]; sample C (0.083 g of 4.5% solution in NMP), rank A < B < C): precipitation was observed
SMILES: CCOC(=O)c1ncn2c1CN(C)C(=O)c1cc(F)ccc1-2 [flumazenil, ethyl 8-fluoro-5,6-dihydro-5-methyl-6-oxo-4H-imidazo[1,5-a](1,4)benzodiazepine-3-carboxylate]
methamphetamine cravings (methamphetamine cravings): substantially reduce methamphetamine cravings
